Results reported in paper PMC7248693, “Synthesis and Biological Evaluation of 2-Substituted Benzyl-/Phenylethylamino-4-amino-5-aroylthiazoles as Apoptosis-Inducing Anticancer Agents” (Molecules, 2020).
Values belong to the compound of their own block, whether it stands above or below them.

Experiments:
[1] = test system: tubulin; conditions: previously reported series with general structure 2; reference not printed at the place; read-out: IC50 tubulin assembly assay; cited from earlier work
[2] = test system: panel of four different cancer cell lines; parameters: method as in earlier work; conditions: read-out: IC50 against a panel of four different cancer cell lines; cited from earlier work
[3] = test system: U-937 leukemia cells; assay: Cell cycle analysis by flow cytometry (propidium iodide); assay type: cell-based, human
Description: Induction of apoptosis in cancer cells is recognized as an efficient strategy for cancer chemotherapy. For this reason, it was decided to determine whether these compounds display their cytotoxic action through alterations in cell cycle progression and induction of cell apotosis. To this end, the effects at different time periods (6, 12 and 24 h) with different concentrations (10 and 30 μM) of 8f and 8k on cell cycle progression on U-937 leukemia cells were investigated by flow cytometry analyses.
Flow cytometric analysis of propidium iodide-stained cells was performed as previously described. Briefly, U-937 cells were treated with the indicated compounds at the specified concentrations in RPMI 1640 medium. After treatments, cells were centrifuged for 10 min at 500× g, washed with cold phosphate-buffered saline (PBS), fixed with ice-cold 75% ethanol and stored at −20 °C for at least 1 h. Samples were then centrifuged at 500 × g for 10 min at 4 °C, washed with PBS, resuspended in 200 μL of PBS containing 100 μg mL^−1 RNase A and 50 μg mL^−1 propidium iodide and incubated for 1 h in the dark. The DNA content was analyzed by flow cytometry with a Becton-Dickinson FACSVerse^TM cytometer (BD Biosciences, San Jose, CA, USA). The percentage of cells in each phase of the cell cycle was determined for a minimum of 10^4 cells, and histograms were analyzed with Flowing 2.5.0 software.

[4] = test system: Bovine brain tubulin; assay: Inhibition of tubulin polymerization (turbidimetric assembly); assay type: biochemical; conditions: for IC50: 10 μM tubulin, 20 min incubation at 30 °C; for inhibition of tubulin polymerization: at high concentrations (up to 20 μM)
Description: Bovine brain tubulin was purified as described previously. To evaluate the effect of the compounds on tubulin assembly in vitro [31], varying concentrations were preincubated with 10 μM tubulin in glutamate buffer at 30 °C and then cooled to 0 °C. After addition of GTP, the mixtures were transferred to 0 °C cuvettes in a recording spectrophotometer and warmed to 30 °C, and the assembly of tubulin was observed turbidimetrically. The IC50 was defined as the compound concentration that inhibited the extent of assembly by 50% after a 20 min incubation.

[5] = test system: U-937; assay: Antiproliferative activity, MTT assay, U-937 cells; assay type: cell-based, human; conditions: for IC50: Homo sapiens, U-937, 72 h, MTT, mean ± SE, at least three independent experiments
Source text: (§1) In Table 1, we summarize the antiproliferative activity of the 15 novel 2-arylalkylamino-4-amino-5-(3′,4′,5′-trimethoxybenzoyl)thiazole derivatives 8a–o against human leukemia (U-937) and melanoma (SK-MEL-1) tumor cells lines.
(§2) Human U-937 and SK-MEL-1 cell lines were from the German Collection of Microorganisms and Cell Cultures (Braunschweig, Germany; DSMZ No: ACC 5 and ACC 303, respectively). The U-937 is a myeloid leukemia cell line isolated from a histiocytic lymphoma. SK-MEL-1 is a melanoma cell line. Cells were cultured in suspension in RPMI 1640 medium supplemented with 10% (v/v) fetal bovine serum and antibiotics (100 μg mL^−1 streptomycin and 100 U mL^−1 penicillin), at 37 °C in a humidified atmosphere containing 5% CO2. The trypan blue exclusion method was used for counting the cells by a hemocytometer, and cell viability was always greater than 95% in all experiments. Compounds were dissolved in DMSO, and further dilutions were made in culture medium just before use. […] The effects on cell viability of synthetic compounds were determined using a colorimetric assay with the reduction of 3-(4,5-dimethyl-2-thiazolyl-)-2,5-diphenyl-2H-tetrazolium bromide (MTT) as previously described. Briefly, 5 × 10^3 cells were seeded in 96-well microculture plates with increasing concentrations of compounds for 72 h. Then, MTT (0.5 mg mL^−1) was added and incubated for 4 h, and the reaction was stopped with 20% sodium dodecyl sulfate. A570 was used as a measure of cell viability. Concentrations inducing a 50% inhibition of cell growth were determined graphically by nonlinear regression using the curve-fitting algorithm of GraphPad Prism 4.0 (GraphPad Inc La Jolla, CA, USA).

[6] = test system: SK-MEL-1; assay: Antiproliferative activity, MTT assay, SK-MEL-1 cells; assay type: cell-based, human; conditions: Homo sapiens, SK-MEL-1; 72 h, MTT; mean ± SE, at least three independent experiments
Source text: as §1, §2

[7] = target: T1, CDK6/Cyclin D3 (Homo sapiens, UniProt Q00534); assay: In vitro CDK inhibition assay (ADP-Glo), CDK6; assay type: biochemical; conditions: single concentration of 10 μM; range over CDK4, CDK6, CDK9 and 8f, 8k; read-out: enzyme inhibition CDK6
T1 construct: purchased Promega
T1 sequence (Q00534 whole entry): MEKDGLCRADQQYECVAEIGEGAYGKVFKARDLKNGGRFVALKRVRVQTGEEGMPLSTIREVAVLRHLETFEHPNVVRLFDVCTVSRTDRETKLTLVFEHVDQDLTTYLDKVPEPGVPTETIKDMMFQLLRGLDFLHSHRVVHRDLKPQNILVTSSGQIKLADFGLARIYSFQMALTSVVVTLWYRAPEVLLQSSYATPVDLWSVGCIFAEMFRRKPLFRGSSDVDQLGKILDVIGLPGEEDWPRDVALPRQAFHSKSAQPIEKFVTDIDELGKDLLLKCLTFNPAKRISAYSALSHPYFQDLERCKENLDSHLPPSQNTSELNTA
T1 sequence (P30281 whole entry partner): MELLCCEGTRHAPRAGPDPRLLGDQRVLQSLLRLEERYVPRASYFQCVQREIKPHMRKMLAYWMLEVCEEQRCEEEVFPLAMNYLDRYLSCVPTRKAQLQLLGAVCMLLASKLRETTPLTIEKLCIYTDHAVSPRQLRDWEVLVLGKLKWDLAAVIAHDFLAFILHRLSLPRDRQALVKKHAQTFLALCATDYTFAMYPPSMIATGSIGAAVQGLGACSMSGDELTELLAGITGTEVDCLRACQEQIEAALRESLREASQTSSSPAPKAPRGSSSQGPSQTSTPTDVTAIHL
Description: (§3) The CDK4, 6 and 9 inhibitory activies were determined using the CDK4/Cyclin D1 Assay kit (ProQinase, Freiburg im Breisgau, Germany), CDK6/Cyclin D3 Kinase Enzyme System (Promega, Milan, Italy) and CDK9/CyclinK Kinase Enzyme System (Promega) by ADP-Glo CDK assays following the manufacturer’s instructions. The assay was performed with the test compounds at 10 μM.

[8] = target: T2, CDK9/CyclinK (Homo sapiens, UniProt P50750); assay: In vitro CDK inhibition assay (ADP-Glo), CDK9; assay type: biochemical; conditions: single concentration of 10 μM; range over CDK4, CDK6, CDK9 and 8f, 8k; read-out: enzyme inhibition CDK9
T2 construct: purchased Promega
T2 sequence (P50750 whole entry): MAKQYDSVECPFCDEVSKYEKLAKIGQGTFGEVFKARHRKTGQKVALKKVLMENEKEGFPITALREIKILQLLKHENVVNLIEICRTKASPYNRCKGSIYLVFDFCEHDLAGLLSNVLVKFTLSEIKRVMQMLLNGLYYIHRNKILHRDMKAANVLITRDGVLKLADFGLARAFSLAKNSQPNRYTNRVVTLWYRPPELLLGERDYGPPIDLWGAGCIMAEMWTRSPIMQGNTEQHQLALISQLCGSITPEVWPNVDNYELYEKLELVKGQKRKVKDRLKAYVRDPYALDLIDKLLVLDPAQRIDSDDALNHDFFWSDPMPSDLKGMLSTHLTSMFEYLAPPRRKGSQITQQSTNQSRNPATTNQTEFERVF
T2 sequence (O75909 whole entry partner): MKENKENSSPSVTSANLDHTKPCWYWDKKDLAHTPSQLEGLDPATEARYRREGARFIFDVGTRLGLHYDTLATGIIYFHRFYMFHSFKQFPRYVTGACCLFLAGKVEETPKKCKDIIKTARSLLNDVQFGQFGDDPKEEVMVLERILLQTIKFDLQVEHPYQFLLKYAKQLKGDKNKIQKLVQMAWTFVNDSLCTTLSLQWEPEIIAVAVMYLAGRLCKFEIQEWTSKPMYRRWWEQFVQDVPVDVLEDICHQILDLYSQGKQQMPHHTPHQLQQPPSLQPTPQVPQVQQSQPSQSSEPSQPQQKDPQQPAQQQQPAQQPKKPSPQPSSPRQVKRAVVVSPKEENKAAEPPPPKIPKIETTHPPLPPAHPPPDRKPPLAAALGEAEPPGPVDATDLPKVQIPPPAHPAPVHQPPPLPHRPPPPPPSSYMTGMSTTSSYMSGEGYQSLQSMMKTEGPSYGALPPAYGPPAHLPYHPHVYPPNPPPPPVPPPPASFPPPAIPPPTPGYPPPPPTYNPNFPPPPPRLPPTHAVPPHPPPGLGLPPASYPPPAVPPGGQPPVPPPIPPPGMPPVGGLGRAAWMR
Description: as §3

[9] = target: T3, CDK4/Cyclin D1 (Homo sapiens, UniProt P11802); assay: In vitro CDK inhibition assay (ADP-Glo), CDK4; assay type: biochemical; conditions: single concentration of 10 μM; range over CDK4, CDK6, CDK9 and 8f, 8k; read-out: enzyme inhibition CDK4
T3 construct: purchased ProQinase
T3 sequence (P11802 whole entry): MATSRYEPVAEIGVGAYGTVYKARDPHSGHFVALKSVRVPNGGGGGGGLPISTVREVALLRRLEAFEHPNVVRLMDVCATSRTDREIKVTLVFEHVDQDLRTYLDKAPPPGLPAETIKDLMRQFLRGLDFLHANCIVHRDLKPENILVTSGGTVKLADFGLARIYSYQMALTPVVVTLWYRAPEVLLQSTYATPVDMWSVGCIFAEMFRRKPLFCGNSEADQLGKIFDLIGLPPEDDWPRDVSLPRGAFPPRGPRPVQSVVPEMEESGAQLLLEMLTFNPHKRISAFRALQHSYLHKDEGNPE
T3 sequence (P24385 whole entry partner): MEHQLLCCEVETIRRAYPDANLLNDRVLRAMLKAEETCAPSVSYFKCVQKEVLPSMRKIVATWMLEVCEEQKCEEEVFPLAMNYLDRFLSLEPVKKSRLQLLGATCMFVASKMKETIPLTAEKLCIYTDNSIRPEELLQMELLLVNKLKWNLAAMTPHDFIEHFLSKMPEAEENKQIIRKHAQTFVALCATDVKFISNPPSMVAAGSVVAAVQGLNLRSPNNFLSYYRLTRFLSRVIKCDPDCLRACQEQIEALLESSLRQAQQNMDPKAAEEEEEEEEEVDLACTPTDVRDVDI
Description: as §3

[10] = Cytotoxicity against peripheral blood lymphocytes, MTT assay; assay type: cell-based; conditions: human, peripheral blood lymphocytes (PBL) from healthy donors, read-out: IC50 cytotoxic activity against normal cells (PBL)
Description: In order to investigate the selective antiproliferative activity of the new synthesized compounds, we tested representative derivatives 8f and 8k against peripheral blood lymphocytes (PBL) isolated from healthy donors.
PBLs from healthy donors were obtained by separation on Lymphoprep (Fresenius KABI Norge AS, Halden, Norway) gradient. After extensive washing, cells were resuspended (1.0 × 10^6 cells/mL) in RPMI-1640 with 10% fetal bovine serum and incubated overnight in a 96-well tissue culture microtiter plate. Varying compound concentrations were added to the cells, and the MTT assay was used to assess viability after a 48 h treatment.

[11] = test system: CDK9; parameters: method as in PMID 30454645; conditions: cited from earlier work

SMILES: COc1cc(C(=O)c2sc(Nc3ccc(C)cc3)nc2N)cc(OC)c1OC [2b]
IC50 [1]: 0.72 µM

SMILES: COc1cc(C(=O)c2sc(N(C)Cc3ccccc3)nc2N)cc(OC)c1OC [3a]
IC50 [2]: < 200 µM

IC50 [4]: > 20 µM
IC50 [5]: 6.7 ± 3.6 µM
IC50 [6]: 12.2 ± 3.2 µM
inhibition at 10 µM [7]: 2 to 8%
inhibition at 10 µM [8]: 2 to 8%
inhibition at 10 µM [9]: 2 to 8%
SMILES: COc1cc(C(=O)c2sc(NCCc3ccc(Cl)cc3)nc2N)cc(OC)c1OC [8f, (4-Amino-2-((4-chlorophenethyl)amino)thiazol-5-yl)(3,4,5-trimethoxyphenyl)methanone]
% G1 ([3]; 6 h, 10 µM): 40.4 ± 1.0 %
% G2-M ([3]; 6 h, 10 µM): 23.6 ± 1.3%
% S ([3]; 6 h, 10 µM): 29.3 ± 0.1 %
% Sub-G1 ([3]; 6 h, 10 µM): 4.4 ± 0.5%
% G1 ([3]; 6 h, 30 µM): 40.5 ± 1.6 %
% G2-M ([3]; 6 h, 30 µM): 23.3 ± 1.4%
% S ([3]; 6 h, 30 µM): 30.9 ± 0.4 %
% Sub-G1 ([3]; 6 h, 30 µM): 3.8 ± 0.1%
% G1 ([3]; 12 h, 10 µM): 47.8 ± 1.0%
% G2-M ([3]; 12 h, 10 µM): 21.5 ± 1.2%
% S ([3]; 12 h, 10 µM): 22.4 ± 0.2%
% Sub-G1 ([3]; 12 h, 10 µM): 6.5 ± 0.2 %
% G1 ([3]; 12 h, 30 µM): 27.4 ± 0.4 %
% G2-M ([3]; 12 h, 30 µM): 27.6 ± 0.6 %
% S ([3]; 12 h, 30 µM): 25.5 ± 0.1 %
% Sub-G1 ([3]; 12 h, 30 µM): 17.8 ± 1.0 %
% G1 ([3]; 24 h, 10 µM): 42.5 ± 0.3 %
% G2-M ([3]; 24 h, 10 µM): 15.0 ± 0.8%
% S ([3]; 24 h, 10 µM): 29.8 ± 0.3 %
% Sub-G1 ([3]; 24 h, 10 µM): 10.3 ± 0.7 %
% G1 ([3]; 24 h, 30 µM): 12.6 ± 0.7 %
% G2-M ([3]; 24 h, 30 µM): 16.6 ± 0.8%
% S ([3]; 24 h, 30 µM): 13.6 ± 0.6 %
% Sub-G1 ([3]; 24 h, 30 µM): 56.2 ± 2.0 %
increase of apoptotic cells with respect to control cells ([3]; 24 h, 30 µM): approximately 16.5 fold
inhibition of tubulin polymerization [4]: did not show any noteworthy inhibition
IC50 at 48 h [10]: > 100 µM

IC50 [4]: > 20 µM
IC50 [5]: 5.7 ± 1.3 µM
IC50 [6]: 8 ± 4.3 µM
inhibition at 10 µM [7]: 2 to 8%
inhibition at 10 µM [8]: 2 to 8%
inhibition at 10 µM [9]: 2 to 8%
SMILES: COc1ccc(CCNc2nc(N)c(C(=O)c3cc(OC)c(OC)c(OC)c3)s2)cc1 [8k, (4-Amino-2-((4-methoxyphenethyl)amino)thiazol-5-yl)(3,4,5-trimethoxyphenyl)methanone]
% G1 ([3]; 6 h, 10 µM): 38.7 ± 0.3 %
% G2-M ([3]; 6 h, 10 µM): 25.3 ± 0.2 %
% S ([3]; 6 h, 10 µM): 30.7 ± 0.1 %
% Sub-G1 ([3]; 6 h, 10 µM): 3.7 ± 0.4%
% G1 ([3]; 6 h, 30 µM): 35.6 ± 0.5 %
% G2-M ([3]; 6 h, 30 µM): 23.1 ± 0.4%
% S ([3]; 6 h, 30 µM): 32.0 ± 0.5 %
% Sub-G1 ([3]; 6 h, 30 µM): 7.6 ± 0.5 %
% G1 ([3]; 12 h, 10 µM): 41.9 ± 0.1 %
% G2-M ([3]; 12 h, 10 µM): 23.7 ± 1.4%
% S ([3]; 12 h, 10 µM): 20.2 ± 0.4%
% Sub-G1 ([3]; 12 h, 10 µM): 12.1 ± 0.8 %
% G1 ([3]; 12 h, 30 µM): 17.3 ± 0.4 %
% G2-M ([3]; 12 h, 30 µM): 29.9 ± 1.7 %
% S ([3]; 12 h, 30 µM): 26.8 ± 0.2 %
% Sub-G1 ([3]; 12 h, 30 µM): 24.3 ± 1.5 %
% G1 ([3]; 24 h, 10 µM): 39.4 ± 0.2 %
% G2-M ([3]; 24 h, 10 µM): 17.2 ± 0.6%
% S ([3]; 24 h, 10 µM): 28.4 ± 1.1 %
% Sub-G1 ([3]; 24 h, 10 µM): 12.7 ± 0.1 %
% G1 ([3]; 24 h, 30 µM): 11.2 ± 0.9 %
% G2-M ([3]; 24 h, 30 µM): 23.8 ± 2.9 %
% S ([3]; 24 h, 30 µM): 11.5 ± 0.4 %
% Sub-G1 ([3]; 24 h, 30 µM): 51.5 ± 4.2 %
increase of apoptotic cells with respect to control cells ([3]; 24 h, 30 µM): ~15 fold
inhibition of tubulin polymerization [4]: did not show any noteworthy inhibition
increase of antiproliferative activity relative to 8j ([5]; cell line not specified (U-937 and SK-MEL-1)): 3-4 fold
IC50 at 48 h [10]: > 100 µM

SMILES: COc1ccc(/C=C\c2cc(OC)c(OC)c(OC)c2)cc1O [CA-4, combretastatin A-4, reference compound]
IC50 [1]: 1.4 µM
IC50 [5]: 0.019 ± 0.012 µM
IC50 [6]: 3.1 ± 2.9 µM

SMILES: Nc1nc(N[C@H]2CC3CCC2C3)sc1C(=O)c1ccccc1[N+](=O)[O-] (stereo partly drawn) [compound 7, 2-(exo-2′-aminonorbornane)-4-amino-5-(2′-nitrobenzoyl)-thiazole]
selectivity for CDK9 than for other CDKs [11]: at least 22 fold
